Experimental data: patent US8927046B2, “Resveratrol compositions” (DSM IP Assets B.V., priority 2009, dated 2015)

How the values were obtained:
Assay type in all cases: physicochemical
[1] = trans-resveratrol suspended in mineral drink water (Arkina) after pasteurization at 80° C. for 1 minute; HPLC concentration and deposit observation; settings: for Concentration after 18 hours / Concentration after 5 days / Concentration initial: HPLC
Method: (§1) At 80° C. in water, resveratrol crystals need more than 15 minutes to dissolve completely to reach a concentration of 120 mg/liter. […] After the milling, the resveratrol CWS is dissolved within 1 minute at 80° C. 1 minute at 80° C. are standard conditions for the pasteurization step for the production of the beverages. This dissolution of the resveratrol during this pasteurization step ensures a good physical stability of the resveratrol in the beverages.
Different concentration of Resvida™ (resveratrol cryst.) not milled were dispersed in mineral drink water (Arkina) and pasteurized at 80° C. for 1 minute. The following results with trans-resveratrol suspended in water (analysis done with HPLC) have been obtained:
This powder was dissolved in mineral drink water (Arkina) and pasteurized at 80° C. for 1 minute. The following results with trans-resveratrol suspended in water (analysis done with HPLC) have been obtained: […]

[2] = Dissolution time in water at 80° C.; settings: at 80° C. in water, to reach a concentration of 120 mg/liter
Method: as §1

[3] = Deposits or visible recrystallization in beverages
Excerpt: Preparation: • Dissolve potassium sorbate in a small quantity of water. • Add citric acid solution, dry vitamin E 15% CC and resveratrol CWS. • Stir until all ingredients have dissolved. • Add sugar, stir again and add water to 1 liter. • Fill into appropriate packages and pasteurize or pasteurize and fill aseptically.
Preparation: • Dissolve potassium sorbate in a part of water under stirring. • Add resveratrol CWS under further stirring. • Add sugar syrup, ascorbic acid, citric acid solution, water-soluble flavour and beta-carotene solution, one after the other, under stirring (no high-speed mixer). • Dilute the bottling syrup to one liter of beverage. • Fill into appropriate packages and pasteurize or pasteurize and fill aseptically.

[4] = theoretical concentration 81.5 mg/liter, mineral drink water, pasteurized 80° C. 1 minute
[5] = theoretical concentration 98.5 mg/liter, mineral drink water, pasteurized 80° C. 1 minute
[6] = theoretical concentration 119 mg/liter, mineral drink water, pasteurized 80° C. 1 minute
[7] = theoretical concentration 160 mg/liter, mineral drink water, pasteurized 80° C. 1 minute
[8] = theoretical concentration 205.5 mg/liter, mineral drink water, pasteurized 80° C. 1 minute

Oc1ccc(C=Cc2cc(O)cc(O)c2)cc1 [Resvida, 3,5,4′-trihydroxystilbene]
physical stability of resveratrol dissolved at 80° C. ([1]; at room temperature, after dissolution in water at 80° C.): crystallize and make deposits within a couple of days
Observation [1, 4]: Deposits +
Concentration after 18 hours [1, 4]: 62.0 µg/mL
Concentration after 5 days [1, 4]: 65.0 µg/mL
Concentration initial [1, 4]: 71.8 µg/mL
Concentration after 18 hours [1, 5]: 67.0 µg/mL
Concentration after 5 days [1, 5]: 47.1 µg/mL
Concentration initial [1, 5]: 87.4 µg/mL
Concentration after 18 hours [1, 6]: 67.7 µg/mL
Concentration after 5 days [1, 6]: 55.5 µg/mL
Concentration initial [1, 6]: 102.6 µg/mL
Concentration after 18 hours [1, 7]: 67.5 µg/mL
Concentration after 5 days [1, 7]: 46.4 µg/mL
Concentration initial [1, 7]: 123.7 µg/mL
Concentration after 18 hours [1, 8]: 61.3 µg/mL
Concentration after 5 days [1, 8]: 40.5 µg/mL
Concentration initial [1, 8]: 142.0 µg/mL
time to dissolve completely [2]: more than 15 minutes
deposit when used instead of the CWS form ([3]; near water beverage of Example 9): a deposit remained which could not be dissolved
deposit when used instead of the CWS form ([3]; soft drink of Example 10): a deposit remains which can not be dissolved
